Literature values in PMC10202811 (Nature Medicine, 2023).

Conditions: adults with NSCLC; cited from earlier work

## C[C@H]1Oc2cc(cnc2N)-c2c(nn(C)c2C#N)CN(C)C(=O)c2ccc(F)cc21 [Lorlatinib, (10R)-7-amino-12-fluoro-2,10,16-trimethyl-15-oxo-10,15,16,17-tetrahydro-2H-8,4-(metheno)pyrazolo[4,3-h][2,5,11]-benzoxadiazacyclotetradecine-3-carbonitrile]
  adult RP2D: 100 mg per day
